Reference: US9944659B2, “Boron-containing diacylhydrazine compounds” (Intrexon Corporation, priority 2014, dated 2018)
In brackets after ≈: the same amount, converted by molar mass. Like-named read-outs stand apart in the source and are kept apart here.

Assay: Solubility (24 hrs equilibration at RT, HPLC-UV)
Type: physicochemical
Details: thermodynamic from solid, target concentration 5 mg/ml, 24 hrs at RT
Experimental: Representative Compounds of the Disclosure were tested for solubity (Table 4) as follows:
0.1 M Phosphate Buffer Ionic Strength ˜0.15M
Simulated Intestinal Fluid pH 7.5 (USP)
Weigh ˜2 mgs of compound into clean glass 1 dram vails.
Add ˜[…] of appropriate media to vial to yield a target concentration of 5 mg/ml.
Place vials on a rotating shaker and equilibrate for 24 hrs. at RT.
Remove supernatant to microcentrifuge tubes and centrifuge at 1300 rpm for 30 minutes.
Remove an aliquot of supernatant, dilute accordingly with acetonitrile.
Assay Samples by HPLC-UV Against Standards.

[1] = biorelevant, Simulated Intestinal Fluid pH 7.5 (USP), read-out: Solubility SIF
[2] = pH 7.4, aqueous buffer, 0.1 M Phosphate Buffer, read-out: Solubility pH 7.4

Compound	solubility at 24 h [1]	solubility at 24 h [2]
Cc1cc(C)cc(C(=O)N(NC(=O)c2ccc(B(O)O)c(NS(=O)(=O)c3ccccc3)c2)C(C)(C)C)c1 [compound 7, (4-(2-(tert-butyl)-2-(3,5-dimethylbenzoyl)hydrazine-1-carbonyl)-2-(phenylsulfonamido)phenyl)boronic acid]	10.7 µg/mL (≈ 20.4 µM)	4.1 µg/mL (≈ 7.83 µM)
Cc1cc(C)cc(C(=O)N(NC(=O)c2ccc3c(c2)B(O)NC3)C(C)(C)C)c1 [compound 1, N′-(tert-butyl)-N′-(3,5-dimethylbenzoyl)-1-hydroxy-2,3-dihydro-1H-benzo[c][1,2]azaborole-6-carbohydrazide]	4870 µg/mL (≈ 12900 µM)	> 5000 µg/mL
Cc1cc(C)cc(C(=O)NNC(=O)c2ccc3c(c2)N=C(C(F)(F)F)OB3O)c1 [compound 6, N′-(3,5-dimethylbenzoyl)-1-hydroxy-3-(trifluoromethyl)-1H-benzo[c][1,5,2]oxazaborinine-6-carbohydrazide]	0.4 µg/mL (≈ 0.987 µM)	1.7 µg/mL (≈ 4.2 µM)
COc1cccc(C(=O)NN(C(=O)c2ccc3c(c2)B(O)OC3)C(C)(C)C)c1C [compound 8, N-(tert-butyl)-1-hydroxy-N′-(3-methoxy-2-methylbenzoyl)-1,3-dihydrobenzo[c][1,2]oxaborole-6-carbohydrazide]	121 µg/mL (≈ 305 µM)	42.3 µg/mL (≈ 107 µM)
Cc1cc(C)cc(C(=O)N(NC(=O)c2ccc3c(c2)NC(=S)N(c2ccccc2)B3O)C(C)(C)C)c1 [compound 4, N′-(tert-butyl)-N′-(3,5-dimethylbenzoyl)-1-hydroxy-2-phenyl-3-thioxo-1,2,3,4-tetrahydrobenzo[c][1,5,2]diazaborinine-6-carbohydrazide]	2640 µg/mL (≈ 5280 µM)	3560 µg/mL (≈ 7120 µM)
CC1=Nc2cc(C(=O)NN(C(=O)c3cc(C)cc(C)c3)C(C)(C)C)ccc2B(O)O1 [compound 2, N′-(tert-butyl)-N′-(3,5-dimethylbenzoyl)-1-hydroxy-3-methyl-1H-benzo[c][1,5,2]oxazaborinine-6-carbohydrazide]	4050 µg/mL (≈ 9940 µM)	4310 µg/mL (≈ 10600 µM)
Cc1cc(C)cc(C(=O)N(NC(=O)c2ccc3c(c2)N=COB3O)C(C)(C)C)c1 [compound 3, N′-(tert-butyl)-N′-(3,5-dimethylbenzoyl)-1-hydroxy-1H-benzo[c][1,5,2]oxazaborinine-6-carbohydrazide]	90.2 µg/mL (≈ 229 µM)	39.4 µg/mL (≈ 100 µM)

Other lines, results leading:

solubility at 24 h [1]	solubility at 24 h [2]	Compound
3800 µg/mL (≈ 8970 µM)	3760 µg/mL (≈ 8880 µM)	COc1cccc(C(=O)NN(C(=O)c2ccc3c(c2)N=C(C)OB3O)C(C)(C)C)c1C [compound 12, N-(tert-butyl)-1-hydroxy-N′-(3-methoxy-2-methylbenzoyl)-3-methyl-1H-benzo[c][1,5,2]oxazaborinine-6-carbohydrazide]
334 µg/mL (≈ 815 µM)	221 µg/mL (≈ 540 µM)	COc1cccc(C(=O)NN(C(=O)c2ccc3c(c2)N=COB3O)C(C)(C)C)c1C [compound 13, N-(tert-butyl)-1-hydroxy-N′-(3-methoxy-2-methylbenzoyl)-1H-benzo[c][1,5,2]oxazaborinine-6-carbohydrazide]
492 µg/mL (≈ 1250 µM)	505 µg/mL (≈ 1280 µM)	Cc1cc(C)cc(C(=O)N(NC(=O)c2ccc3c(c2)B(O)NCC3)C(C)(C)C)c1 [compound 18, N′-(tert-butyl)-N′-(3,5-dimethylbenzoyl)-1-hydroxy-1,2,3,4-tetrahydrobenzo[c][1,2]azaborinine-7-carbohydrazide]
59.3 µg/mL (≈ 140 µM)	0.13 µg/mL (≈ 0.308 µM)	Cc1cc(C)cc(C(=O)N(NC(=O)c2ccc(B(O)O)c(NCC#N)c2)C(C)(C)C)c1 [compound 17, (4-(2-(tert-butyl)-2-(3,5-dimethylbenzoyl)hydrazine-1-carbonyl)-2-((cyanomethyl)amino)phenyl)boronic acid]
417 µg/mL (≈ 833 µM)	540 µg/mL (≈ 1080 µM)	COc1cccc(C(=O)NN(C(=O)c2ccc3c(c2)NC(=O)N(c2ccccc2)B3O)C(C)(C)C)c1C [compound 15, N-(tert-butyl)-1-hydroxy-N′-(3-methoxy-2-methylbenzoyl)-3-oxo-2-phenyl-1,2,3,4-tetrahydrobenzo[c][1,5,2]diazaborinine-6-carbohydrazide]
31.4 µg/mL (≈ 77.1 µM)	16.8 µg/mL (≈ 41.2 µM)	Cc1cc(C)cc(C(=O)N(NC(=O)c2ccc(CC#N)c(B(O)O)c2)C(C)(C)C)c1 [compound 19, (5-(2-(tert-butyl)-2-(3,5-dimethylbenzoyl)hydrazine-1-carbonyl)-2-(cyanomethyl)phenyl)boronic acid]
4800 µg/mL (≈ 11700 µM)	4870 µg/mL (≈ 11800 µM)	CNCc1ccc(C(=O)NN(C(=O)c2cc(C)cc(C)c2)C(C)(C)C)cc1B(O)O [compound 10, (5-(2-(tert-butyl)-2-(3,5-dimethylbenzoyl)hydrazine-1-carbonyl)-2-((methylamino)methyl)phenyl)boronic acid]
4510 µg/mL (≈ 11400 µM)	4920 µg/mL (≈ 12400 µM)	COc1cccc(C(=O)NN(C(=O)c2ccc3c(c2)B(O)NC3)C(C)(C)C)c1C [compound 9, N-(tert-butyl)-1-hydroxy-N′-(3-methoxy-2-methylbenzoyl)-2,3-dihydro-1H-benzo[c][1,2]azaborole-6-carbohydrazide]
24.1 µg/mL (≈ 44.7 µM)	6.9 µg/mL (≈ 12.8 µM)	COc1cccc(C(=O)NN(C(=O)c2ccc(B(O)O)c(NS(=O)(=O)c3ccccc3)c2)C(C)(C)C)c1C [compound 16, (4-(1-(tert-butyl)-2-(3-methoxy-2-methylbenzoyl)hydrazine-1-carbonyl)-2-(phenylsulfonamido)phenyl)boronic acid]
4650 µg/mL (≈ 10900 µM)	4700 µg/mL (≈ 11100 µM)	Cc1cc(C)cc(C(=O)N(NC(=O)c2ccc(CN(C)C)c(B(O)O)c2)C(C)(C)C)c1 [compound 11, (5-(2-(tert-butyl)-2-(3,5-dimethylbenzoyl)hydrazine-1-carbonyl)-2-((dimethylamino)methyl)phenyl)boronic acid]
3330 µg/mL (≈ 8470 µM)	2680 µg/mL (≈ 6820 µM)	Cc1cc(C)cc(C(=O)N(NC(=O)c2ccc3c(c2)B(O)ON=C3)C(C)(C)C)c1 [compound 20, N′-(tert-butyl)-N′-(3,5-dimethylbenzoyl)-1-hydroxy-1H-benzo[d][1,2,6]oxazaborinine-7-carbohydrazide]
